In patent US9096492B2, “Hydrated N-fullerene amino acids, method for producing the latter, and pharmaceutical compositions on the basis thereof” (priority 2011, dated 2015):
Several values for one entry are separate records, joined by “and”; a condition that tells them apart may be missing. Equal entries are not always repeated. Where two headings read alike, the source gives them in different places.

Legend:
[1] = Chronic toxicity in rats, intramuscular 30 days: clinical observation and body weight; conditions: 3, 9, or 20 mg/kg intramuscularly daily for a month
[2] = rat, in vivo
[3] = rat, in vivo; remark: listed apart in the source
[4] = Chronic toxicity in rats: autopsy and weight coefficients of viscera; conditions: any of the tested doses; after the end of administration
solid Ehrlich carcinoma = assay: Solid Ehrlich carcinoma in white mice, tumor size dynamics
[5] = tested on: A/Swine/1976/31 (H1N1) influenza virus; type: in vivo, mice; conditions: for Infectious virus titer (log10EID50/20 mg tissue): lung tissue
[6] = tested on: ascites Ehrlich carcinoma cells; assay: Apoptosis in ascites Ehrlich carcinoma cells of treated mice (cytofluorimetric analysis); type: in vivo
[7] = tested on: human lymphoblastoid cells; assay: Cytotoxicity in human lymphoblastoid cells model
[8] = rat, in vivo; remark: listed apart in the source
[9] = ascites cells having large sizes and granularity (tumor cells)
[10] = ascites cells of moderate size and granularity

N-fullerene tris(δ-aminocaproic acid) hydrate [Agent 1]
clinical signs of poisoning [1]: no clinical signs of poisoning were observed
Glucose: number of animals with values going beyond the limits ([2]; 3 mg/kg): 0
Leukocytes: number of animals with values going beyond the limits ([2]; 3 mg/kg): 3
Protein: number of animals with values going beyond the limits ([2]; 9 mg/kg): 3
Bilirubin: number of animals with values going beyond the limits ([2]; 20 mg/kg): 0
Erythrocytes: number of animals with values going beyond the limits ([2]; 20 mg/kg): 5
Glucose: number of animals with values going beyond the limits ([2]; 20 mg/kg): 0
Nitrites: number of animals with values going beyond the limits ([2]; 20 mg/kg): 1
Basophils, % ([3]; 3 mg/kg): 0%
Erythrocytes, Mln/mm ([3]; 3 mg/kg): 6.5 ± 1.2 Mln/mm
Young, % ([3]; 3 mg/kg): 0%
Basophils, % ([3]; 9 mg/kg): 0%
Erythrocytes, Mln/mm ([3]; 9 mg/kg): 6.4 ± 0.5 Mln/mm
Young, % ([3]; 9 mg/kg): 0%
Avg. erythr. volume., mcm ([3]; 20 mg/kg): 50.4 ± 1.5 mcm
Basophils, % ([3]; 20 mg/kg): 0%
Erythrocytes, Mln/mm ([3]; 20 mg/kg): 6.3 ± 0.8 Mln/mm
Hematocrit, % ([3]; 20 mg/kg): 31.2 ± 3.5%
Young, % ([3]; 20 mg/kg): 0%
autopsy finding at the injection site (skeletal muscles) [4]: a brownish color of muscle tissue, fascia, and fat layers was noticed
Tumor size (mm^3) (solid Ehrlich carcinoma; 100 mg/kg, day 8 post transplantation): 72.5 mm^3
Tumor size (mm^3) (solid Ehrlich carcinoma; 100 mg/kg, day 13 post transplantation): 544.3 mm^3
Tumor size (mm^3) (solid Ehrlich carcinoma; 100 mg/kg, day 17 post transplantation): 693.6 mm^3
Tumor size (mm^3) (solid Ehrlich carcinoma; 100 mg/kg, day 21 post transplantation): 1250.8 mm^3
Tumor size (mm^3) (solid Ehrlich carcinoma; 100 mg/kg, day 24 post transplantation): 1654.3 mm^3
Tumor size (mm^3) (solid Ehrlich carcinoma; 100 mg/kg, day 28 post transplantation): 2239.8 mm^3
Tumor size (mm^3) (solid Ehrlich carcinoma; 300 mg/kg, day 8 post transplantation): 72.7 mm^3
Tumor size (mm^3) (solid Ehrlich carcinoma; 300 mg/kg, day 13 post transplantation): 416.3 mm^3
Tumor size (mm^3) (solid Ehrlich carcinoma; 300 mg/kg, day 17 post transplantation): 1224.6 mm^3
Tumor size (mm^3) (solid Ehrlich carcinoma; 300 mg/kg, day 21 post transplantation): 1703.4 mm^3
Tumor size (mm^3) (solid Ehrlich carcinoma; 300 mg/kg, day 24 post transplantation): 2048.5 mm^3
Tumor size (mm^3) (solid Ehrlich carcinoma; 300 mg/kg, day 28 post transplantation): 2525.7 mm^3
Average lifetime (LD) ([5]; 30 mg/kg, Summary dose, n=30): 10.6 days
Increase in LD ([5]; 30 mg/kg, Summary dose, n=30): 1.9 days
Mortality rate, % ([5]; 30 mg/kg, Summary dose, n=30): 56.7%
Number of survivors ([5]; 30 mg/kg, Summary dose, n=30): 13
Average lifetime (LD) ([5]; 30 mg/kg, virus 1 LD50, n=15): 12.3 days
Increase in LD ([5]; 30 mg/kg, virus 1 LD50, n=15): 1.7 days
Mortality rate, % ([5]; 30 mg/kg, virus 1 LD50, n=15): 40.0%
Number of survivors ([5]; 30 mg/kg, virus 1 LD50, n=15): 9
Average lifetime (LD) ([5]; 30 mg/kg, virus 10 LD50, n=15): 8.9 days
Increase in LD ([5]; 30 mg/kg, virus 10 LD50, n=15): 2.4 days
Mortality rate, % ([5]; 30 mg/kg, virus 10 LD50, n=15): 73.3%
Number of survivors ([5]; 30 mg/kg, virus 10 LD50, n=15): 4
Average lifetime (LD) ([5]; 100 mg/kg, Summary dose, n=28): 11.8 days
Increase in LD ([5]; 100 mg/kg, Summary dose, n=28): 3.1 days
Mortality rate, % ([5]; 100 mg/kg, Summary dose, n=28): 39.3%
Number of survivors ([5]; 100 mg/kg, Summary dose, n=28): 17
Average lifetime (LD) ([5]; 100 mg/kg, virus 1 LD50, n=15): 13.1 days
Increase in LD ([5]; 100 mg/kg, virus 1 LD50, n=15): 2.5 days
Mortality rate, % ([5]; 100 mg/kg, virus 1 LD50, n=15): 26.7%
Number of survivors ([5]; 100 mg/kg, virus 1 LD50, n=15): 11
Average lifetime (LD) ([5]; 100 mg/kg, virus 10 LD50, n=13): 10.3 days
Increase in LD ([5]; 100 mg/kg, virus 10 LD50, n=13): 3.7 days
Mortality rate, % ([5]; 100 mg/kg, virus 10 LD50, n=13): 53.8%
Number of survivors ([5]; 100 mg/kg, virus 10 LD50, n=13): 6
Average lifetime (LD) ([5]; 300 mg/kg, Summary dose, n=28): 12.3 days
Increase in LD ([5]; 300 mg/kg, Summary dose, n=28): 3.7 days
Mortality rate, % ([5]; 300 mg/kg, Summary dose, n=28): 32.1%
Number of survivors ([5]; 300 mg/kg, Summary dose, n=28): 19
Size of chronic post-influenza pneumonia sites (% of the total surface area of the lungs) ([5]; 300 mg/kg, the lower of the virus doses used, day 15): 25 ± 7%
Average lifetime (LD) ([5]; 300 mg/kg, virus 1 LD50, n=14): 13.6 days
Increase in LD ([5]; 300 mg/kg, virus 1 LD50, n=14): 3.0 days
Mortality rate, % ([5]; 300 mg/kg, virus 1 LD50, n=14): 21.4%
Number of survivors ([5]; 300 mg/kg, virus 1 LD50, n=14): 11
Average lifetime (LD) ([5]; 300 mg/kg, virus 10 LD50, n=14): 11.0 days
Increase in LD ([5]; 300 mg/kg, virus 10 LD50, n=14): 4.4 days
Mortality rate, % ([5]; 300 mg/kg, virus 10 LD50, n=14): 42.9%
Number of survivors ([5]; 300 mg/kg, virus 10 LD50, n=14): 8
Infectious virus titer (log10EID50/20 mg tissue) ([5]; 300 mg/kg, virus dose 1 LD50): 3.7 ± 0.3 log10EID50/20 mg tissue
Infectious virus titer (log10EID50/20 mg tissue) ([5]; 300 mg/kg, virus dose 5 LD50): 4.1 ± 0.2 log10EID50/20 mg tissue
AnV^+ 7AAD^+ (late apoptosis) [6, 9]: 69.5 ± 5.8%
AnV^+ 7AAD^− (early apoptosis) [6, 9]: 0.1 ± 0.1%
AnV^−7AAD^− (living cells) [6, 9]: 0.3 ± 0.1%
AnV^−7AAD^+ (necrosis) ([6]; ascites cells having large sizes and granularity (tumor cells), hydrate): 30.2% and 30.2 ± 5.9%
Percent amount of cells with the phenotype AnV^+ 7AAD^+ (late apoptosis) [6, 10]: 4.2 ± 2.4%
Percent amount of cells with the phenotype AnV^+ 7AAD^− early apoptosis [6, 10]: 31.1 ± 10.4%
Percent amount of cells with the phenotype AnV^−7AAD^+ (necrosis) [6, 10]: 0.4 ± 0.4%
Percent amount of cells with the phenotype AnV^−7AAD^− (living cells) [6, 10]: 6.1 ± 6.2%
Cell survival rate, % ([7]; 0.5 mcg/mL): 95%
Number of cells × 10^3/mL ([7]; 0.5 mcg/mL): 633 10^3/mL
Cell survival rate, % ([7]; 1.0 mcg/mL): 94%
Number of cells × 10^3/mL ([7]; 1.0 mcg/mL): 599 10^3/mL
Cell survival rate, % ([7]; 5.0 mcg/mL): 96%
Number of cells × 10^3/mL ([7]; 5.0 mcg/mL): 530 10^3/mL
Cell survival rate, % ([7]; 10.0 mcg/mL): 92%
Number of cells × 10^3/mL ([7]; 10.0 mcg/mL): 500 10^3/mL
Cell survival rate, % ([7]; 100 mcg/mL): 70%
Number of cells × 10^3/mL ([7]; 100 mcg/mL): 433 10^3/mL
Animal body weight, g (M ± SD) (females, 5 mg/kg single i.m., day 0): 19.1 ± 2. g
Animal body weight, g (M ± SD) (females, 5 mg/kg single i.m., day 7): 20.6 ± 2 g
Animal body weight, g (M ± SD) (females, 5 mg/kg single i.m., day 14): 22.8 ± 2. g
Animal body weight, g (M ± SD) (females, 50 mg/kg single i.m., day 0): 18.6 ± 1. g
Animal body weight, g (M ± SD) (females, 50 mg/kg single i.m., day 7): 19.9 g
Animal body weight, g (M ± SD) (females, 50 mg/kg single i.m., day 14): 21.9 ± 1. g
Animal body weight, g (M ± SD) (females, 500 mg/kg single i.m., day 0): 18.9 ± 1. g
Animal body weight, g (M ± SD) (females, 500 mg/kg single i.m., day 7): 20.7 ± 0 g
Animal body weight, g (M ± SD) (females, 500 mg/kg single i.m., day 14): 22.8 ± 1. g
Animal body weight, g (M ± SD) (males, 5 mg/kg single i.m., day 0): 23.0 ± 2.9 g
Animal body weight, g (M ± SD) (males, 5 mg/kg single i.m., day 7): 24.1 ± 2 g
Animal body weight, g (M ± SD) (males, 5 mg/kg single i.m., day 14): 25.4 ± 2. g
Animal body weight, g (M ± SD) (males, 50 mg/kg single i.m., day 0): 22.4 ± 2.1 g
Animal body weight, g (M ± SD) (males, 50 mg/kg single i.m., day 7): 23.7 ± 2 g
Animal body weight, g (M ± SD) (males, 50 mg/kg single i.m., day 14): 25.4 ± 2. g
Animal body weight, g (M ± SD) (males, 500 mg/kg single i.m., day 0): 22.6 ± 2.2 g
Animal body weight, g (M ± SD) (males, 500 mg/kg single i.m., day 7): 24.2 ± 1 g
Animal body weight, g (M ± SD) (males, 500 mg/kg single i.m., day 14): 26.2 ± 1. g
local irritant effect (mice and rats, after a single intramuscular injection): does not cause a local irritant effect
death during the 14-day observation period (mice, 5, 50 and 500 mg/kg single i.m.): No death occurred
LD50 (mice, single intramuscular administration, exceeds the maximal tested dose): > 500 mg/kg
induction of microscopic changes in organs [8]: the identified changes were not induced by the studied substance
Animals with changes, Number: Liver, Plethora of sinusoidal capillaries ([8]; 20 mg/kg): 5
Animals with changes, Number: Lung, Thickening of the interalveolar septa (total) ([8]; 20 mg/kg): 1
